The values below come from PubChem BioAssay (NCI).

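48-hour exposure; five concentrations; linearly interpolated endpoints. GI50: concentration for 50% inhibition of growth. Definition used: TGI = concentration required for complete inhibition of growth.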

Some test systems named below: MDA-MB-435; UACC-257 melanoma; UO-31 renal; NCI-H226 lung; A498 renal; MDA-MB-231 breast; T-47D breast; HT29 colon; M14 melanoma; DU-145 prostate.
Common to all, as to assay: NCI tumour cell line growth inhibition, 48 h

With `COc1cc(/C=C2\CC3C4CC=C5CC(N6CCCC6)CC[C@]5(C)C4CC[C@]3(C)C2OC(C)=O)ccc1OCCN1CCCC1` (stereo not given in full), the GI50 in the assay on MDA-MB-435 was 19.6 µM; with UACC-257 melanoma, 1.95 µM; with UO-31 renal, 1.86 µM; in the assay with NCI-H226 lung it was 3.19 µM; in the assay on A498 renal, 1.52 µM; with MDA-MB-231 breast it was 8.82 µM. Also, the GI50 is 16.8 µM in the assay with T-47D breast, 1.82 µM in the assay with HT29 colon, 1.89 µM with M14 melanoma and 3.52 µM in the assay with DU-145 prostate. In addition, the TGI in the assay on MDA-MB-435 turned out to be 35.5 µM; in the assay on UACC-257 melanoma, 3.53 µM; in the assay on UO-31 renal, 3.35 µM; in the assay with NCI-H226 lung, 10.1 µM; in the assay with A498 renal it was 3.26 µM; in the assay on MDA-MB-231 breast, 22.5 µM. For the same compound, the TGI in the assay on T-47D breast is 34.5 µM; with HT29 colon, 4.39 µM; with M14 melanoma, 3.41 µM; in the assay with DU-145 prostate, greater than 100 µM.

Take `Cn1c(N)nc2c(nc(OCc3ccccc3)n2C2OC(CO)C(O)C2O)c1=O` (stereo not given): the TGI with MDA-MB-435, in the assay on UACC-257 melanoma, with UO-31 renal, with NCI-H226 lung, with A498 renal and in the assay with MDA-MB-231 breast was greater than 100 µM in each case. The TGI in the assay with T-47D breast, in the assay on HT29 colon, in the assay with M14 melanoma and with DU-145 prostate was greater than 100 µM in each case.

Turning to `C=CC(=O)Nc1cccc(Nc2nc(Nc3ccc(OCCOC)cc3)ncc2F)c1`, the GI50 was 2.87 µM in the assay on MDA-MB-435; 6.4 µM in the assay with UACC-257 melanoma; 0.549 µM with UO-31 renal; 0.914 µM in the assay with NCI-H226 lung; 0.306 µM in the assay on A498 renal; 2.85 µM in the assay with MDA-MB-231 breast. Also, the GI50 in the assay with T-47D breast was 1.7 µM; in the assay with HT29 colon, 2.6 µM; in the assay on M14 melanoma it was 1.12 µM; with DU-145 prostate, 1.55 µM. The TGI was 15.7 µM with MDA-MB-435; 22.5 µM in the assay on UACC-257 melanoma; 5.06 µM in the assay with UO-31 renal; 11.6 µM in the assay with NCI-H226 lung; 1.66 µM with A498 renal; 24.7 µM in the assay with MDA-MB-231 breast. Further, the TGI in the assay on T-47D breast worked out at 8.9 µM; in the assay with HT29 colon it was 16.3 µM; in the assay on M14 melanoma it was 12.7 µM; in the assay with DU-145 prostate it was 13.7 µM.

On to `COc1ccc2c(-c3cc4ccccc4o3)cc(=O)oc2c1`, for which the TGI with MDA-MB-435 was greater than 100 µM; in the assay on UACC-257 melanoma it was greater than 100 µM; in the assay on UO-31 renal it was 65.6 µM; in the assay on NCI-H226 lung, greater than 100 µM; with A498 renal, greater than 92 µM; in the assay on MDA-MB-231 breast it was greater than 100 µM. In addition, the TGI in the assay with T-47D breast, in the assay on HT29 colon, with M14 melanoma and in the assay with DU-145 prostate was greater than 100 µM each time.

As for `CN(C)CCNC(=O)Nc1c(C#N)[n+]([O-])c2cc(Cl)c(Cl)cc2[n+]1[O-]`, the GI50 in the assay with MDA-MB-435 is 31 µM; in the assay on UACC-257 melanoma, 36.5 µM; in the assay with UO-31 renal, 45 µM; in the assay on NCI-H226 lung it was 22.3 µM; with A498 renal, 51.6 µM; in the assay on MDA-MB-231 breast, 19.9 µM. Also, the GI50 in the assay on T-47D breast was 14.6 µM; in the assay on HT29 colon it was 27.3 µM; with M14 melanoma, 21.9 µM; with DU-145 prostate, 25.4 µM. For the same compound, the TGI in the assay with MDA-MB-435 is greater than 100 µM; in the assay on UACC-257 melanoma, greater than 100 µM; in the assay on UO-31 renal, greater than 100 µM; with NCI-H226 lung, greater than 100 µM; with A498 renal it was greater than 100 µM; with MDA-MB-231 breast it was 56.9 µM. Besides, the TGI with T-47D breast, in the assay with HT29 colon, in the assay on M14 melanoma and in the assay on DU-145 prostate was greater than 100 µM in each case.

As to `CCCCCC(=O)Oc1ccc(/C(=C(\C)c2ccc(OC)cc2)c2ccc(OCCN3CCCCC3)cc2)cc1`, the GI50 in the assay with MDA-MB-435 was 7.93 µM; in the assay on UACC-257 melanoma, 2.31 µM; with UO-31 renal, 3 µM; with NCI-H226 lung it was 17.3 µM; in the assay on A498 renal, 13.5 µM; in the assay on MDA-MB-231 breast, 9.32 µM. Moreover, the GI50 with T-47D breast was 2 µM; with HT29 colon, 3.36 µM; with M14 melanoma, 2.02 µM; with DU-145 prostate it was 13.5 µM. Besides, the TGI in the assay on MDA-MB-435 came to 20.7 µM; in the assay with UACC-257 melanoma, 5.83 µM; in the assay on UO-31 renal, 14.4 µM; in the assay with NCI-H226 lung, 38.4 µM; in the assay with A498 renal, 26.5 µM; in the assay with MDA-MB-231 breast it was 21.9 µM. Moreover, the TGI with T-47D breast worked out at 16.5 µM; in the assay with HT29 colon, 13.4 µM; with M14 melanoma, 4.37 µM; with DU-145 prostate it was 26.6 µM.

For the compound `COc1ccc2c(c1)[C@@]13CCN4CC5=CCO[C@H]6CC(=O)N2[C@H]1[C@H]6[C@H]5C[C@H]43`, the TGI was greater than 100 µM in the assay with MDA-MB-435; greater than 100 µM in the assay with UACC-257 melanoma; greater than 100 µM in the assay with UO-31 renal; 30.9 µM with NCI-H226 lung; greater than 100 µM in the assay with A498 renal; greater than 100 µM with MDA-MB-231 breast. Besides, the TGI with T-47D breast, in the assay with HT29 colon, in the assay on M14 melanoma and in the assay with DU-145 prostate was greater than 100 µM each time.

As for `COc1cc2c3c(n(CCCN4CCC(N)CC4)c(=O)c2cc1OC)-c1cc2c(cc1C3=O)OCO2`, the GI50 with MDA-MB-435 is 1.77 µM; in the assay on UACC-257 melanoma, 7.9 µM; with UO-31 renal, 2.32 µM; in the assay with NCI-H226 lung, 0.757 µM; in the assay on A498 renal, 3.03 µM; in the assay with MDA-MB-231 breast, 0.682 µM. Further, the GI50 was 1.06 µM in the assay on T-47D breast, 0.621 µM in the assay on HT29 colon, 1.34 µM in the assay with M14 melanoma and 0.14 µM with DU-145 prostate. For the same compound, the TGI with MDA-MB-435 is 8.47 µM; with UACC-257 melanoma, 17.9 µM; in the assay with UO-31 renal it was 16.5 µM; in the assay with NCI-H226 lung it was 2.95 µM; in the assay on A498 renal, 10.8 µM; with MDA-MB-231 breast, 1.36 µM. Moreover, the TGI in the assay on T-47D breast is 4 µM; with HT29 colon, 9.81 µM; with M14 melanoma, 5.23 µM; in the assay with DU-145 prostate, 0.803 µM.

Take `C=CCOc1c(Br)cc(Br)cc1Br`: the GI50 in the assay on MDA-MB-435 is 3.46 µM; in the assay on UACC-257 melanoma, 57.6 µM; in the assay with UO-31 renal, 2.82 µM; in the assay with NCI-H226 lung it was 24.8 µM; in the assay on A498 renal it was 8.49 µM; with MDA-MB-231 breast, 6.7 µM. The GI50 with T-47D breast was 31.4 µM; with HT29 colon, 33 µM; with M14 melanoma, 19.6 µM; in the assay with DU-145 prostate, 58.5 µM. Besides, the TGI is 66.1 µM in the assay on MDA-MB-435; greater than 100 µM with UACC-257 melanoma; 57.8 µM in the assay on UO-31 renal; greater than 100 µM in the assay with NCI-H226 lung; greater than 100 µM in the assay on A498 renal; greater than 100 µM with MDA-MB-231 breast. Also, the TGI with T-47D breast, in the assay on HT29 colon, with M14 melanoma and in the assay on DU-145 prostate was greater than 100 µM each time.

As to `CC(C)(C)c1nc2c(o1)C(=Nc1ccc(F)cc1)c1ccccc1C2=O`, the TGI in the assay on MDA-MB-435 was 3.76 µM; in the assay on UACC-257 melanoma, 8.41 µM; in the assay with UO-31 renal, 28.1 µM; in the assay with NCI-H226 lung it was 34.3 µM; in the assay with A498 renal, 50.9 µM; with MDA-MB-231 breast, greater than 100 µM. For the same compound, the TGI in the assay on T-47D breast was greater than 100 µM; with HT29 colon, 41.6 µM; with M14 melanoma it was 9.35 µM; in the assay with DU-145 prostate it was 29.4 µM.

Turning to `NCCN1CCN(c2nccc(-c3ccc4ccccc4c3)n2)CC1`, the GI50 with MDA-MB-435 is 1.8 µM; with UACC-257 melanoma, 1.86 µM; with UO-31 renal, 1.5 µM; with NCI-H226 lung, 2.03 µM; in the assay with A498 renal it was 1.59 µM; in the assay on MDA-MB-231 breast it was 1.66 µM. The GI50 with T-47D breast was 1.88 µM; in the assay with HT29 colon, 1.93 µM; in the assay on M14 melanoma, 1.89 µM; in the assay on DU-145 prostate, 1.85 µM. Besides, the TGI in the assay on MDA-MB-435 was 3.25 µM; in the assay on UACC-257 melanoma, 3.41 µM; in the assay with UO-31 renal, 2.96 µM; in the assay with NCI-H226 lung it was 5.66 µM; with A498 renal, 3.3 µM; in the assay with MDA-MB-231 breast, 3.31 µM. Besides, the TGI in the assay on T-47D breast turned out to be 4.59 µM; with HT29 colon, 3.77 µM; in the assay on M14 melanoma it was 3.54 µM; in the assay on DU-145 prostate, 3.42 µM.

Consider `Cc1ncc(NC(=O)c2ccc(CN3CCN(C)CC3)c(C(F)(F)F)c2)cc1Nc1nccc(-c2cccnc2)n1`, for which the GI50 in the assay on MDA-MB-435 is 12 µM; with UACC-257 melanoma, 14.4 µM; in the assay with UO-31 renal, 11.7 µM; in the assay with NCI-H226 lung, 19.5 µM; with A498 renal, 20.1 µM; in the assay with MDA-MB-231 breast, 12.5 µM. Also, the GI50 with T-47D breast was 17.9 µM; in the assay with HT29 colon, 2.81 µM; in the assay on M14 melanoma, 10.2 µM; in the assay with DU-145 prostate, 16.7 µM. Besides, the TGI in the assay with MDA-MB-435 turned out to be 24.4 µM; with UACC-257 melanoma, 27.9 µM; in the assay on UO-31 renal, 24 µM; in the assay with NCI-H226 lung, 39.7 µM; in the assay on A498 renal it was 34.9 µM; in the assay with MDA-MB-231 breast it was 27.3 µM. The TGI in the assay with T-47D breast is 37.5 µM; in the assay on HT29 colon, 21.8 µM; in the assay with M14 melanoma it was 22.7 µM; with DU-145 prostate, 30.4 µM.

Turning to `Oc1c(Br)cc(CN(Cc2cc(Br)c(O)c(Br)c2)C2CCCCC2)cc1Br`, the TGI with MDA-MB-435, in the assay on UACC-257 melanoma, in the assay with UO-31 renal, with NCI-H226 lung, with A498 renal and with MDA-MB-231 breast was greater than 100 µM in each case. The TGI in the assay with T-47D breast, with HT29 colon, in the assay with M14 melanoma and with DU-145 prostate was greater than 100 µM throughout.

For the compound `C=C(C)[C@@H]1CC[C@@]2(C(=O)O)CC[C@]3(C)C(CCC4[C@@]5(C)CCC(OS(=O)(=O)c6ccccc6)C(C)(C)C5CC[C@]43C)C12` (stereo not given in full), the GI50 in the assay on MDA-MB-435 is 4.49 µM; in the assay with UACC-257 melanoma it was 4.76 µM; with UO-31 renal it was 2.79 µM; in the assay on NCI-H226 lung, 7.07 µM; in the assay with A498 renal it was 4.68 µM; in the assay with MDA-MB-231 breast, 8.58 µM. The GI50 is 2 µM with T-47D breast, 5.52 µM in the assay with HT29 colon, 11.2 µM in the assay with M14 melanoma and 6.5 µM with DU-145 prostate. Further, the TGI with MDA-MB-435 amounted to 20.1 µM; in the assay with UACC-257 melanoma it was 39.6 µM; with UO-31 renal, 15.9 µM; in the assay on NCI-H226 lung it was 28.3 µM; in the assay on A498 renal, 20.6 µM; with MDA-MB-231 breast, 25.6 µM. Further, the TGI in the assay with T-47D breast is 17.1 µM; with HT29 colon it was 18 µM; in the assay with M14 melanoma, 25.1 µM; in the assay on DU-145 prostate, 20.8 µM.
